Among the data in publication PMC10486429, “Investigations Using Albumin Binders to Modify the Tissue Distribution Profile of Radiopharmaceuticals Exemplified with Folate Radioconjugates” (Cancers, 2023) are Relative albumin-binding affinity and Albumin-bound fraction values, retold here.

For data set [1], the target named is T1, mouse serum albumin (MSA) in mouse plasma (Mus musculus, UniProt P07724).
T1 construct: tissue Rockland Immunochemicals, Inc. Lot No. 32321; host or cells: mouse blood plasma, undiluted and diluted in PBS
T1 sequence (P07724 25-608): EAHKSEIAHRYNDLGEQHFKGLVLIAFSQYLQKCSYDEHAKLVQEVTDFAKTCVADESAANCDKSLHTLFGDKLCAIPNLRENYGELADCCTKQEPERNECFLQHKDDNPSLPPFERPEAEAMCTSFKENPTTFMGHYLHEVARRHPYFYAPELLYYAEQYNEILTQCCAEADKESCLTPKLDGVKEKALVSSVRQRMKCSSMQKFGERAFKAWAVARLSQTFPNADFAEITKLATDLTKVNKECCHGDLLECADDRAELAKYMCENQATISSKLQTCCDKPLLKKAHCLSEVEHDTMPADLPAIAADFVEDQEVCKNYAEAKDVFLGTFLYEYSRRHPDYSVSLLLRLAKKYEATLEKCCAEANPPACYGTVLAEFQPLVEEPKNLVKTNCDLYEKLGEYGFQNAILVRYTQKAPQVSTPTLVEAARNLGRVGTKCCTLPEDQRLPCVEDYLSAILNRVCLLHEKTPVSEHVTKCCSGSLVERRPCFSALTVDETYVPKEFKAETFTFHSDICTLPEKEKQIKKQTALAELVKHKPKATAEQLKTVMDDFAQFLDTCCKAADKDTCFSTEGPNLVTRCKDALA
Briefly: Ultrafiltration albumin-binding assay of 177Lu-RedFols, mouse plasma. Particulars: for Relative albumin-binding affinity: mouse blood plasma, inverse B50 ratio, normalized to the respective (6R or 6S) RedFol-1, set as 1.0; for Albumin-bound fraction: undiluted mouse blood plasma. The method, then:
(§1) S11. Relative Albumin-Binding Properties of 177Lu-RedFols
human blood plasma was determined and compared.
Switzerland; HSA: ⁓800 µM), respectively. An ultrafiltration method was applied accord-
ples at 37 °C for 30 min.
unbound) fractions of each sample. The inserts of the filter devices were inverted and
were presented as average of 3 independent experiments.

Data set [2] has as its target human serum albumin (HSA) in human plasma (Homo sapiens, UniProt P02768). Briefly: Ultrafiltration albumin-binding assay of 177Lu-RedFols, human plasma. The note with it: for Relative albumin-binding affinity: human blood plasma, inverse B50 ratio, normalized to the respective (6R or 6S) RedFol-1, set as 1.0; for Albumin-bound fraction: undiluted human blood plasma. The method, then:
An ultrafiltration method was applied according to a previously published procedure (Supplementary Materials Section S11) that was different from the one reported for the ^177Lu-DOTA-ALBs to prevent non-specific binding to the filter units. Briefly, the albumin-bound fraction was determined at different molar concentration ratios of serum albumin relative to the ^177Lu-labeled RedFols using a blood plasma/PBS dilution series and constant amounts of the respective ^177Lu-labeled folate conjugate (0.3 MBq; 0.006 nmol). The albumin-bound fraction was separated from the free (albumin-unbound) fraction of each sample using Amicon centrifugal filters (cut-off of 10 kDa; Merck Millipore, Carrigtwohill, Ireland). The inserts of the filter devices were inverted and centrifuged to recover the albumin-bound fraction, whereas filter-bound activity was considered as free (albumin-unbound) folate radioconjugate. The activity of the different fractions was measured using a γ-counter (Perkin Elmer, Wallac Wizard 1480, Waltham, MA, USA), and the proportion of albumin-bound radioconjugate was set in relation to the total activity measured. The data were analyzed in analogy to those of ^177Lu-DOTA-ALBs (Section 2.1.3). The relative albumin-binding affinity was assessed by calculating the inverse ratio of the B50 value of each 6R-5-MTHF-based folate radioconjugate to the B50 value of [^177Lu]Lu-6R-RedFol-1 (set as 1.0) and of each 6S-5-MTHF-based folate radioconjugate to the B50 value of [^177Lu]Lu-6S-RedFol-1 (set as 1.0). The results were presented as average ± SD of n = 3 independent experiments. […]
as §1
Purpose: The affinity of the folate radioconjugates to serum albumin in mouse and human blood plasma was determined and compared.
Methods: The albumin-binding affinity of the 177Lu-RedFols was assessed using mouse plasma (Rockland Immunochemicals, Inc., Pottstown, PA, USA, Lot N: 32321; MSA: ⁓550 µM) and human plasma (Stiftung Blutspende SRK Aargau-Solothurn, Aarau, Switzerland; HSA: ⁓800 µM), respectively. An ultrafiltration method was applied accord-ing to a previously published procedure that was different from the one reported for the 177Lu-DOTA-ALBs to avoid non-specific binding to the filter units.
The folate radioconjugates (50 MBq/nmol, ~300 kBq, 6 pmol in 15 µL) were added to samples of mouse and human blood plasma (150 µL), followed by incubation of the sam-ples at 37 °C for 30 min. The samples were loaded on Amicon centrifugal filters (cut-off of 10 kDa; Merck Millipore, Carrigtwohill, Ireland) followed by centrifugation (14000 rcf, 30 min, 4 °C) to allow the separation of the serum albumin-bound from the free (albumin-unbound) fractions of each sample. The inserts of the filter devices were inverted and centrifuged at 200 rcf for 3 min to recover the albumin-bound fraction. The activity of the albumin-bound fraction as well as the activity in the filtrate and in the filter unit were measured separately in a γ-counter (Perkin Elmer, Wallac Wizard 1480, Waltham, MA, USA). The percentage of radioconjugate bound to mouse and human albumin, respec-

Each structure is given as a SMILES string.

human serum albumin (HSA) in human plasma, sequence (P02768 25-609): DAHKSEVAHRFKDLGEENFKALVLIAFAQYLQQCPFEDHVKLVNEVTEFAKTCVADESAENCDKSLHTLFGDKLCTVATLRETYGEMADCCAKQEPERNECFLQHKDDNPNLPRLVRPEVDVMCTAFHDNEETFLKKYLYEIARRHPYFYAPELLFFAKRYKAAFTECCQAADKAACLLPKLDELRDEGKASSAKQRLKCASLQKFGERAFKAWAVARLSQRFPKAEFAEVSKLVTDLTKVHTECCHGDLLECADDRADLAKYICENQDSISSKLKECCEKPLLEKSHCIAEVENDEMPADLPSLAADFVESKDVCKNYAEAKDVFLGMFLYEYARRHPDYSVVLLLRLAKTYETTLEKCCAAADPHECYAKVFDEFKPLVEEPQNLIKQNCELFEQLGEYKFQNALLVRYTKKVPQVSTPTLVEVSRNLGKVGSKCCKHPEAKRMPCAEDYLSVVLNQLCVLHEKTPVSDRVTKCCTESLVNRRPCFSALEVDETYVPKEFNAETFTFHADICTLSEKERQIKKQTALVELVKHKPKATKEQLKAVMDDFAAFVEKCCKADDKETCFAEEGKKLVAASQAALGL

Consider `CN1c2c(nc(N)[nH]c2=O)NC[C@H]1CNc1ccc(C(=O)N[C@@H](CCC(=O)N[C@@H](CCCCNC(=O)CN2CCN(CC(=O)O)CCN(CC(=O)O)CCN(CC(=O)O)CC2)C(=O)N[C@@H](CCCCNC(=O)CCCc2ccc(I)cc2)C(=O)O)C(=O)O)cc1` [[^177Lu]Lu-6R-RedFol-1, metal not drawn], for which the Relative albumin-binding affinity in data set [1] and in data set [2] was 1.0 each time. In addition, the Albumin-bound fraction is recorded as 93% in data set [1] and 98% in data set [2].

For `CN1c2c(nc(N)[nH]c2=O)NC[C@H]1CNc1ccc(C(=O)N[C@@H](CCC(=O)N[C@@H](CCCCNC(=O)CN2CCN(CC(=O)O)CCN(CC(=O)O)CCN(CC(=O)O)CC2)C(=O)N[C@@H](CCCCNC(=O)c2ccc(CNC(=O)CCCc3ccc(I)cc3)cc2)C(=O)O)C(=O)O)cc1` [[^177Lu]Lu-6R-RedFol-3, metal not drawn], the values for the Relative albumin-binding affinity in data set [1] and in data set [2] were 8.4 and 1.1, respectively. The Albumin-bound fraction in data set [1] and in data set [2] was 97% each time.

For the compound `CN1c2c(nc(N)[nH]c2=O)NC[C@H]1CNc1ccc(C(=O)N[C@@H](CCC(=O)N[C@@H](CCCCNC(=O)CN2CCN(CC(=O)O)CCN(CC(=O)O)CCN(CC(=O)O)CC2)C(=O)N[C@@H](CCCCNC(=O)CCCCc2ccc(I)cc2)C(=O)O)C(=O)O)cc1` [[^177Lu]Lu-6R-RedFol-24, metal not drawn], in data set [1], the Relative albumin-binding affinity is recorded as 0.2 and the Albumin-bound fraction is 73%. In addition, in data set [2], the Relative albumin-binding affinity is reported as 0.5 and the Albumin-bound fraction is on record as 94%.

With `CN1c2c(nc(N)[nH]c2=O)NC[C@H]1CNc1ccc(C(=O)N[C@@H](CCC(=O)N[C@@H](CCCCNC(=O)CN2CCN(CC(=O)O)CCN(CC(=O)O)CCN(CC(=O)O)CC2)C(=O)N[C@@H](CCCCNC(=O)c2ccc(CNC(=O)CCCCc3ccc(I)cc3)cc2)C(=O)O)C(=O)O)cc1` [[^177Lu]Lu-6R-RedFol-25, metal not drawn], in data set [1], the Relative albumin-binding affinity was 1.4 and the Albumin-bound fraction came to 94%. Further, in data set [2], the Relative albumin-binding affinity came to 0.5 and the Albumin-bound fraction was 96%.

Consider `CN1c2c(nc(N)[nH]c2=O)NCC1CNc1ccc(C(=O)NC(CCC(=O)NC(CCCCNC(=O)CN2CCN(CC(=O)[O-])CCN(CC(=O)[O-])CCN(CC(=O)[O-])CC2)C(=O)NC(CCCCNC(=O)CCCc2ccc(I)cc2)C(=O)O)C(=O)O)cc1.[177Lu+3]` (stereo not drawn) [[^177Lu]Lu-6S-RedFol-1], for which, in data set [1], the Relative albumin-binding affinity is 1.0 and the Albumin-bound fraction was 93%. In data set [2], the Relative albumin-binding affinity is listed as 1.0 and the Albumin-bound fraction is 98%.

With `CN1c2c(nc(N)[nH]c2=O)NCC1CNc1ccc(C(=O)NC(CCC(=O)NC(CCCCNC(=O)CN2CCN(CC(=O)[O-])CCN(CC(=O)[O-])CCN(CC(=O)[O-])CC2)C(=O)NC(CCCCNC(=O)c2ccc(CNC(=O)CCCc3ccc(I)cc3)cc2)C(=O)O)C(=O)O)cc1.[177Lu+3]` (stereo not drawn) [[^177Lu]Lu-6S-RedFol-3], in data set [1], the Relative albumin-binding affinity is given as 3.5 and the Albumin-bound fraction came to 97%. In data set [2], the Relative albumin-binding affinity was found to be 1.1 and the Albumin-bound fraction was 97%.

In the case of `CN1c2c(nc(N)[nH]c2=O)NCC1CNc1ccc(C(=O)NC(CCC(=O)NC(CCCCNC(=O)CN2CCN(CC(=O)[O-])CCN(CC(=O)[O-])CCN(CC(=O)[O-])CC2)C(=O)NC(CCCCNC(=O)c2ccc(CNC(=O)CCCCc3ccc(I)cc3)cc2)C(=O)O)C(=O)O)cc1.[177Lu+3]` (stereo not drawn) [[^177Lu]Lu-6S-RedFol-25], the Relative albumin-binding affinity in data set [1] turned out to be 0.7; in data set [2], 0.2. Besides, the Albumin-bound fraction is 92% in data set [1] and 91% in data set [2].
